# Where two headings read alike, the source gives them in different places.
# What was measured:
# [1] = system: Chloroquine-resistant P. falciparum FCR3; assay: In vitro antimalarial assay (parasitemia by blood smear, 48 h with compound); format: cell-based, Plasmodium falciparum; details: for antiplasmodium activity (in words): FCR3 strain, tested up to 10 µM
# [2] = system: MCF-7 cells; assay: Cytotoxicity study by MTT proliferation assay; format: cell-based; details: 72 h; for inhibition at 10 µM: Homo sapiens, MCF7, inhibition of cell growth, read-out: MCF-7 % Inh ± DS (10 μM); for MCF-7 % Inh ± DS (10 μM): inhibition of cell growth
# Experimental: • Cytotoxicity study by MTT proliferation assay. MCF-7 cells were purchased from ATCC (Manassas, VA, USA) and cultured in DMEN containing 10% FBS. For 3-(4,5-dimethylthiazol-2-yl)-2,5-diphenyltetrazolium (MTT) (Sigma–Aldrich, St. Louis, MO, USA) analysis, cells were plated in 96-well plates at 10,000 cells/well. Twenty-four hours after plating, vehicle (0.1% DMSO, final concentration) or compound was added to cells at indicated doses. Seventy-two hours following compound addition, MTT was added to each well (0.5 mg/mL, final concentration) and plates were incubated for an additional 3 h at 37 °C. Medium was then aspirated and the formazan product was solubilized in SDS–HCl (20% SDS; HCl 0.02 M). The absorbance of each well was measured at 570 nm using a microplate reader (Sigma–Aldrich, St. Louis, MO, USA).
# [3] = system: Chloroquine-resistant P. falciparum FCR3; assay: In vitro antimalarial assay (parasitemia by blood smear, 48 h with compound); format: cell-based, Plasmodium falciparum; details: mean ± SD of three determinations
# Experimental: • In vitro antimalarial assay.
# FCR-3 chloroquine-resistant strain of P. falciparum (kindly provided by Dr. Fandeur, Pasteur Institute, Cayenne, France) was cultured on glucose-enriched RPMI 1640 medium, supplemented with 10% human serum at 37 °C. After 24 h of incubation at 37 °C, the medium was replaced by fresh medium supplemented with the compound to be evaluated (initial a screening used a concentration of 10 μg/mL), and incubation was continued for a further 48 h. On the third day of the test, a blood smear was taken from each well, and parasitemia was calculated for each concentration of sample compared to the control. Chloroquine (0.1 μg/mL) was used as a positive control. IC50 values were determined graphically by plotting concentrations (0.01–10 μg/mL) versus percent inhibition. All tests were performed in triplicate.
# [4] = system: Plasmodium falciparum; set-up: method as in PMID 23985373; details: previously tested compounds; read-out: IC50 (antiplasmodial activity, previously tested compounds); cited from earlier work
# [5] = Plasmodium falciparum, FCR3, FCR3 strain
Compound,antiplasmodium activity (in words) [1],inhibition at 10 µM [2] [%],"IC50 [3, 5] [µM]",also measured
"CCN(CC)CCCC(C)Nc1ccnc2cc(Cl)ccc12 (centres unmarked) [Chloroquine, reference compound]",,,,"IC50 ([1]; Plasmodium falciparum, FCR3, read-out: Chloroquine-Resistant P. falciparum FCR3 IC50 ± SD): 0.16 ± 0.02 µM"
"N#Cc1ccc2cccc3c2c1C(=O)C=C3 [Compound 18, 1-oxo-1H-phenalene-9-carbonitrile]",most potent compound,32 ± 0.5,,
"O=C1C=Cc2cccc3ccc(Nc4ccc(Cl)cc4)c1c23 [Compound 17, 9-[(4-chlorophenyl)amino]-1H-phenalen-1-one]",,12 ± 0.3,> 10,
"O=C1C(Nc2ncccn2)=Cc2cccc3cccc1c23 [Compound 25, 2-(pyrimidin-2-ylamino)-1H-phenalen-1-one]",,16 ± 0.9,> 10,
"COc1ccc(Nc2ccc3cccc4c3c2C(=O)C=C4)cc1 [Compound 15, 9-[(4-methoxyphenyl)amino]-1H-phenalen-1-one]",,1 ± 0.4,> 10,
"O=C(O)c1cc2cccc3c2c(c1O)C(=O)C=C3 [Compound 34, 9-hydroxy-1-oxo-1H-phenalene-8-carboxylic acid]",lost,0,> 10,
"O=C1C(Br)=Cc2cccc3cccc1c23 [Compound 2, 2-Bromo-1H-phenalen-1-one]",,2 ± 0.7,< 1,IC50 ([3]; FCR3 strain): 0.7 ± 0.04 µM
COc1ccc(C2=CC(=O)c3cccc4cccc2c34)cc1 [Compound 1d],,,,IC50 [4]: 2.1 µM
"O=C1C(c2ccc(F)cc2)=Cc2cccc3cccc1c23 [Compound 6, 2-(4-fluorophenyl)-1H-phenalen-1-one]",,10 ± 2,> 10,
"COc1ccc2c3c(cncc13)C(=O)C=C2 [Compound 36, 9-methoxy-4H-benzo[de]isoquinolin-4-one]",,5 ± 0.9,> 10,
O=C1C=Cc2cccc3ccc(-c4ccccn4)c1c23 [Compound 1c],,,,IC50 [4]: 21 µM
"N#CC1=Cc2cccc3cccc(c23)C1=O [Compound 20, 1-oxo-1H-phenalene-2-carbonitrile]","neither the 2-cyano compound (20) nor the 9-amido compound (19) were active, even at 10 µM",11 ± 0.2,> 10,
"NC(=O)c1ccc2cccc3c2c1C(=O)C=C3 [Compound 19, 1-oxo-1H-phenalene-9-carboxamide]","neither the 2-cyano compound (20) nor the 9-amido compound (19) were active, even at 10 µM",0,> 10,
"CCOC(=O)c1cc2cccc3c2c(c1O)C(=O)C=C3 [Compound 33, ethyl 9-hydroxy-1-oxo-1H-phenalene-8-carboxylate]",lost,0,> 10,
"COc1ccc(NC2=Cc3cccc4cccc(c34)C2=O)cc1 [Compound 23, 2-(4-methoxyanilino)-1H-phenalen-1-one]",,12 ± 0.6,> 10,
"O=C1C=Cc2cccc3ccc(-c4ccccc4)c1c23 [Compound 9, 9-Phenyl-1H-phenalen-1-one]",,6 ± 0.1,> 10,
"O=C1C(c2ccoc2)=Cc2cccc3cccc1c23 [Compound 7, 2-(3-furyl)-1H-phenalen-1-one]",significant loss in antiplasmodium activity,22 ± 0.2,> 10,

Compound,antiplasmodium activity (in words) [1],inhibition at 10 µM [2] [%],"IC50 [3, 5] [µM]",also measured
N-(1-oxo-1H-phenalene-2-yl)carboxamide [Compound 21],,,,MCF-7 % Inh ± DS (10 μM) [2]: 8 ± 0.3%; IC50 ([3]; FCR3 strain): > 10 µM
"COc1cccc(-c2ccc3cccc4c3c2C(=O)C=C4)c1 [Compound 13, 9-(3-methoxyphenyl)-1H-phenalen-1-one]",,12 ± 0.1,> 10,
"Cc1cccc(C)c1Nc1ccc2cccc3c2c1C(=O)C=C3 [Compound 16, 9-[(2,6-dimethylphenyl)amino]-1H-phenalen-1-one]",,0,> 10,
"O=C1C=Cc2cccc3cccc1c23 [Compound 1, 1H-phenalen-1-one]",,16 ± 0.4,2.46 ± 0.08,
"N#Cc1ccc(C2=Cc3cccc4cccc(c34)C2=O)cc1 [Compound 5, 4-(1-oxo-1H-phenalen-2-yl)benzonitrile]",,12 ± 0.3,> 10,
"O=C1C(I)=Cc2cccc3cccc1c23 [Compound 3, 2-Iodo-1H-phenalen-1-one]",significant loss in antiplasmodium activity,4 ± 0.4,> 10,
"O=C1C=Cc2cccc3ccc(-c4ccc(F)cc4)c1c23 [Compound 11, 9-(4-fluorophenyl)-1H-phenalen-1-one]",,8 ± 0.2,> 10,
"N#Cc1ccc(-c2ccc3cccc4c3c2C(=O)C=C4)cc1 [Compound 10, 4-(1-oxo-1H-phenalen-9-yl)benzonitrile]",detrimental to activity,10 ± 1,> 10,
"COc1ccccc1-c1ccc2cccc3c2c1C(=O)C=C3 [Compound 14, 9-(2-methoxyphenyl)-1H-phenalen-1-one]",,15 ± 0.2,> 10,
"COc1ccc(-c2ccc3cccc4c3c2C(=O)C=C4)cc1 [Compound 12, 9-(4-methoxyphenyl)-1H-phenalen-1-one]",,15 ± 0.3,> 10,
"O=C1C(c2ccccc2)=Cc2cccc3cccc1c23 [Compound 4, 2-phenyl-1H-phenalen-1-one]",significant loss in antiplasmodium activity,14 ± 0.8,> 10,
"COc1cccc2c1C(=O)c1c(O)c3c(c(O)c1C2=O)C[C@@](O)(C(=O)CO)C[C@@H]3O[C@H]1C[C@H](N)[C@H](O)[C@H](C)O1 [Adriamycin, reference compound]",,63 ± 4.7,,
"O=C1C(Nc2ccc(Cl)cc2)=Cc2cccc3cccc1c23 [Compound 22, 2-[(4-chloroanilino]-1H-phenalen-1-one]",,42 ± 0.1,> 10,
"O=C1C=Cc2c(O)ccc3ccc(O)c1c23 [Compound 30, 4,9-dihydroxy-1H-phenalen-1-one]",diminished antiplasmodium activity,16 ± 0.4,> 10,
"O=C1C=Cc2cccc3ccc(O)c1c23 [Compound 9-OH, 9-hydroxy-1H-phenalen-1-one]",sub-micromolar activity,6 ± 0.7,< 1,IC50 ([3]; FCR3 strain): 0.72 ± 0.06 µM
"O=C1C=Cc2cccc3cncc1c23 [Compound 35, 4H-benzo[de]isoquinolin-4-one]",complete loss of activity,7 ± 0.1,> 10,
"2-((2,6-dimethylphenyl)amino)-2,3-dihydro-1H-phenalen-1-one [Compound 24]",,,,MCF-7 % Inh ± DS (10 μM) [2]: 7 ± 0.5%; IC50 ([3]; FCR3 strain): > 10 µM

# Source: article PMC12735704, “Synthesis of Substituted 1H-Phenalen-1-ones and Nitrogen-Containing Heterocyclic Analogues as Potential Anti-Plasmodial Agents” (Molecules, 2025)
